We go through 11 compounds from patent US20240383856A1 (Zedira GmbH, priority 2021, published 2024).

A value given as a limit tells only on which side of the number the result lay.

Data set [1] can be described thus: Caco-2 permeability assay (CacoReady kit). The class given is in vitro ADME. The conditions noted are these: human, Caco-2, Caco-2 barrier, CacoReady kit; above 1×10^−6 cm/s classified as permeable. The protocol: Permeability coefficients (Papp values) were obtained from Caco-2 barrier studies predicting oral/intestinal bioavailability of the tested compounds. The assays were performed by using CacoReady™ ready-to-use kits from ReadyCell according to the manufacturers protocol.
On the technique in general: Caco-2 cells form a polarised layer with tight junctions and transporters.

The nature of data set [2]: logD by shake flask method (octanol / PBS pH 7.4, HPLC). The class given is physicochemical. The conditions noted are these: octanol / PBS pH 7.4, shake flask. The procedure: In order to classify the inventive compounds according to their lipophilicity, LogD values (distribution coefficient) were determined by means of the well-established shake flask method, measuring the partition of a compound between an octanol and phosphate-buffered saline (PBS, pH 7.4) by HPLC.
The LogD is pH dependent and is a “predictor” for in-vivo properties. LogD combines lipophilicity (intrinsic structural property of the molecule, logP) and ionizability (pKa). Compounds with a moderate lipophilicity (LogD values from 0 to 3) are usually advantaged for oral absorption, being in balance between solubility and permeability. However, sophisticated formulation of a compound might improve oral bioavailability for highly lipophilic compounds.

The target of data set [3] is T1, recombinant human transglutaminase 2 (Homo sapiens, UniProt P21980).
T1 construct: purchased Zedira T022
T1 sequence (P21980 1-687): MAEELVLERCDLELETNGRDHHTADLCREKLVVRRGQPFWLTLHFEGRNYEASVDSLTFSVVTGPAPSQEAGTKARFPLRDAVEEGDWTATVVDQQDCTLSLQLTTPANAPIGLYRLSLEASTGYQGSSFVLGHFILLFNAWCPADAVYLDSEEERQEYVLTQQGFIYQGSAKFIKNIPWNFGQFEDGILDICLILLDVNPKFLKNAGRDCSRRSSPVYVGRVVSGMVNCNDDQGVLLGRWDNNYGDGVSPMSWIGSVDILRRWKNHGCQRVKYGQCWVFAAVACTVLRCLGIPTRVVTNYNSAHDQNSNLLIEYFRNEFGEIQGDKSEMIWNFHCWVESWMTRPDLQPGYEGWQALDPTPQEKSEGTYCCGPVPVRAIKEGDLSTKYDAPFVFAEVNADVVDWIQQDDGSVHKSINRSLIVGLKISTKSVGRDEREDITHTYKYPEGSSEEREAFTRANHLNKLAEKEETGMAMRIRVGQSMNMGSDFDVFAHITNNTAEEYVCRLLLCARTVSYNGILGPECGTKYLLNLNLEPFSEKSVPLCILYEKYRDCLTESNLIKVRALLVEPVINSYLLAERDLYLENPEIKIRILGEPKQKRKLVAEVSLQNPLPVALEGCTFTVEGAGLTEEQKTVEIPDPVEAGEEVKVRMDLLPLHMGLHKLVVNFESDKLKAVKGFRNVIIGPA
Put plainly: Transglutaminase assay (DCC-assay): incorporation of dansylcadaverine into dimethylcasein. The class given is biochemical. The conditions noted are these: recombinant human TG2 10 nM; dansylcadaverine incorporation into dimethylcasein; read-out: IC50 TG2. The procedure: To illustrate the advantage of branched alkyl moieties over aromatic moieties, we refer to reference compounds Ref. 2 (ZED1227, U.S. Pat. No. 9,434,763 B2) and Ref. 3 (A8, ZED1047). Inhibition data were determined using the classical fluorescent transamidation assay (dansylcadaverine incorporation into methylated casein, DCC-assay) as described [Buchold, C.; Hils, M.; Gerlach, U.; Weber, J.; Pelzer, C.; Heil, A.; Aeschlimann, D.; Pasternack, R. Features of ZED1227: The First-In-Class Tissue Transglutaminase Inhibitor Undergoing Clinical Evaluation for the Treatment of Celiac Disease. Cells 2022, 11, 1667. https://doi.org/10.3390/cells11101667]. Casein is one of the best known high molecular weight (24 kDa) protein substrates for transglutaminases. Please note, the IC50 value of Ref. 3 (A8) published in U.S. Pat. No. 9,434,763 B2 cannot be compared to the present data, relying on a fluorogenic isopeptidase assay.
To this extent, inhibition data were determined using the classical fluorescent transamidation assay (dansylcadaverine incorporation into methylated casein, DCC-assay) as described in Büchold et al. [Büchold, C.; Hils, M.; Gerlach, U.; Weber, J.; Pelzer, C.; Heil, A.; Aeschlimann, D.; Pasternack, R. Features of ZED1227: The First-In-Class Tissue Transglutaminase Inhibitor Undergoing Clinical Evaluation for the Treatment of Celiac Disease. Cells 2022, 11, 1667. https://doi.org/10.3390/cells11101667]. Casein is one of the best known high molecular weight (24 kDa) protein substrates for transglutaminases. Inhibition data of the inventive compounds was compared with inhibition of compounds disclosed in U.S. Pat. No. 9,434,763 B2, particularly, compound A8, which is denoted herein as Reference 3. It is noteworthy that the IC50 values of compounds A8 published in U.S. Pat. No. 9,434,763 B2 and E16 from U.S. Pat. No. 11,072,634 B2 cannot be compared to the present data, relying on a fluorogenic isopeptidase assay.
For the determination of potency of inhibitors against tissue transglutaminase, the incorporation of dansylcadaverine into dimethylcasein (Zedira product T036, Lorand et al., Anal Biochem, 1971, 44:221-31) was measured using recombinant human transglutaminase 2 (Zedira Product T022).
The tissue transglutaminase is diluted in buffer (50 mM Tris-HCl, 7.5 mM CaCl2), 150 mM NaCl, pH=7.4). The final concentration of TG2 in the assay is 10 nM.
A 10 mM inhibitor stock solution is prepared in DMSO, and from this a serial 1:2-fold dilution series is prepared also in DMSO. Each of the initial dilutions is subsequently diluted 1:50-fold with buffer (50 mM Tris-HCl, 7.5 mM CaCl2), 150 mM NaCl, pH=7.4) to yield the final working dilutions containing 2% (v/v) DMSO.
15 μl of inhibitor working dilution are added per well of a 96 well microtiter plate. As control, 15 μl of a 2% (v/v) DMSO solution prepared using the buffer mentioned above are added per well.
Immediately before starting the assay, 600 μl transglutaminase working solution are added to 11.4 ml assay buffer (50 mM Tris-HCl, 10 mM CaCl2), 10 mM glutathione, 2.5% glycerol, 16.7 µM dansylcadaverine, 4 uM N,N-dimethylcasein, 200 mM NaCl, pH=8.0). 285 μl of this reaction mix are added per well containing the inhibitor.
Increase in fluorescence is measured using λex=330 nm and λem=500 nm at 37° C. for 30 min. A slope of the increase in fluorescence between 20 and 30 min is calculated for determination of the IC50 value (inhibitor concentration at which 50% of the initial activity is blocked).
Analysis of enzymatic activity is performed by calculation of the slope of an increase in fluorescence intensity. IC50 values are calculated by plotting the enzymatic activity (as percentage from control containing 2% DMSO instead of inhibitor) against the inhibitor concentration. IC50 is defined as the inhibitor concentration blocking 50% of initial enzyme activity.

For orientation: Papp means the rate of passage across a membrane or cell layer, normalised by area and donor concentration. Read a high Papp as fast passage. One may read the logD as lipophilicity at a set pH, counting ionised and neutral species. Low readings indicate a more hydrophilic compound, high ones a more lipophilic compound. By IC50 is commonly meant the concentration that gives 50% inhibition. The compound `CNC(=O)C(=O)CC[C@H](NC(=O)c1sc(Br)nc1C)C(=O)Nc1cccn(CC(=O)NC2C3CC4CC(C3)CC2C4)c1=O` (stereo partly drawn) [II-14, (S)--(2-bromo-4-methylthiazole-5-carboxamido)-N1-(1-(2-(2-adamantylamino)-2-oxoethyl)-2-oxo-1,2-dihydropyridin-3-yl)-N6-methyl-5-oxohexanediamide] came in with a Papp in data set [1] of 1 to 10 ×10⁻⁶ cm/s. In data set [2], this compound showed a log distribution coefficient (logD) of 1 to 3. Moreover, in data set [3], the IC50 is less than 40 nM.

Regarding `CNC(=O)C(=O)CC[C@H](NC(=O)c1sc(C(F)(F)F)nc1Br)C(=O)Nc1cccn(CC(=O)NC2C3CC4CC(C3)CC2C4)c1=O` (stereo partly drawn) [II-16, (S)-2-(4-bromo-2-(trifluoromethyl)thiazole-5-carboxamido)-N1-(1-(2-(2-adamantylamino)-2-oxoethyl)-2-oxo-1,2-dihydropyridin-3-yl)-N6-methyl-5-oxohexanediamide], in data set [1], the apparent permeability (Papp) lay in the range of 1 to 10 ×10⁻⁶ cm/s. In addition, in data set [2], the log distribution coefficient (logD) was in the range of 1 to 3. The IC50 in data set [3] was less than 40 nM.

In data set [1], `CNC(=O)C(=O)CC[C@H](NC(=O)c1sc(Cl)nc1Cl)C(=O)Nc1cccn(CC(=O)NC2C3CC4CC(C3)CC2C4)c1=O` (stereo partly drawn) [II-17, (S)-2-(2,4-dichlorothiazole-5-carboxamido)-N1-(1-(2-(2-adamantylamino)-2-oxoethyl)-2-oxo-1,2-dihydropyridin-3-yl)-N6-methyl-5-oxohexanediamide] showed a Papp of 1 to 10 ×10⁻⁶ cm/s. In data set [2], the log distribution coefficient (logD) was 1 to 3. For the same compound, the IC50 in data set [3] is 40 to 400 nM.

In the case of `CNC(=O)C(=O)CC[C@H](NC(=O)c1sc(OC)nc1C)C(=O)Nc1cccn(CC(=O)NC2C3CC4CC(C3)CC2C4)c1=O` (stereo partly drawn) [II-18, (S)-N1-(1-(2-(2-adamantylamino)-2-oxoethyl)-2-oxo-1,2-dihydropyridin-3-yl)-2-(2-methoxy-4-methylthiazole-5-carboxamido)-N6-methyl-5-oxohexanediamide], the Papp in data set [1] was less than 1 ×10⁻⁶ cm/s. Besides, the logD in data set [2] lay in the range of 1 to 3. In addition, the IC50 in data set [3] fell in the range of 40 to 400 nM.

`CNC(=O)C(=O)CC[C@H](NC(=O)c1sc(-c2ccccc2)nc1C)C(=O)Nc1cccn(CC(=O)NC2C3CC4CC(C3)CC2C4)c1=O` (stereo partly drawn) [II-19, (S)-N1-(1-(2-(2-adamantylamino)-2-oxoethyl)-2-oxo-1,2-dihydropyridin-3-yl)-N6-methyl-2-(4-methyl-2-phenylthiazole-5-carboxamido)-5-oxohexanediamide] returned an apparent permeability coefficient (Papp) in data set [1] of less than 1 ×10⁻⁶ cm/s. In addition, the pH-dependent lipophilicity (logD) in data set [2] lay in the range of 3 to 5. Besides, the 50% inhibitory concentration (IC50) in data set [3] was 40 to 400 nM.

Regarding `CNC(=O)C(=O)CC[C@H](NC(=O)c1sc(C)nc1C)C(=O)Nc1cccn(CC(=O)NC2C3CC4CC(C3)CC2C4)c1=O` (stereo partly drawn) [II-20, (S)-2-(2,4-dimethylthiazole-5-carboxamido)-N1-(1-(2-(2-adamantylamino)-2-oxoethyl)-2-oxo-1,2-dihydropyridin-3-yl)-N6-methyl-5-oxohexanediamide], in data set [1], the apparent permeability (Papp) was in the range of 1 to 10 ×10⁻⁶ cm/s. For the same compound, the logD in data set [2] fell in the range of 1 to 3. Moreover, the IC50 in data set [3] fell in the range of 400 to 2500 nM.

In data set [1], `CNC(=O)C(=O)CC[C@H](NC(=O)c1sc(Br)cc1C)C(=O)Nc1cccn(CC(=O)NC2C3CC4CC(C3)CC2C4)c1=O` (stereo partly drawn) [II-21, (S)-2-(5-bromo-3-methylthiophene-2-carboxamido)-N1-(1-(2-(2-adamantylamino)-2-oxoethyl)-2-oxo-1,2-dihydropyridin-3-yl)-N6-methyl-5-oxohexanediamide] displayed an apparent permeability coefficient (Papp) of 1 to 10 ×10⁻⁶ cm/s. Besides, the logD in data set [2] was in the range of 3 to 5. Moreover, the IC50 in data set [3] is less than 40 nM.

For the compound `CNC(=O)C(=O)CC[C@H](NC(=O)c1sc(Br)cc1Br)C(=O)Nc1cccn(CC(=O)NC2C3CC4CC(C3)CC2C4)c1=O` (stereo partly drawn) [II-22, (S)-2-(3,5-dibromothiophene-2-carboxamido)-N1-(1-(2-(2-adamantylamino)-2-oxoethyl)-2-oxo-1,2-dihydropyridin-3-yl)-N6-methyl-5-oxohexanediamide], the Papp in data set [1] was in the range of 1 to 10 ×10⁻⁶ cm/s. The logD in data set [2] lay within 3 to 5. In addition, the IC50 in data set [3] was less than 40 nM.

`CNC(=O)C(=O)CC[C@H](NC(=O)c1ccc(Br)s1)C(=O)Nc1cccn(CC(=O)NC2C3CC4CC(C3)CC2C4)c1=O` (stereo partly drawn) [II-23, (S)-2-(5-bromothiophene-2-carboxamido)-N1-(1-(2-(2-adamantylamino)-2-oxoethyl)-2-oxo-1,2-dihydropyridin-3-yl)-N6-methyl-5-oxohexanediamide] displayed a Papp in data set [1] of 1 to 10 ×10⁻⁶ cm/s. This compound also yielded a logD in data set [2] of 3 to 5. Also, the concentration for half-maximal inhibition (IC50) in data set [3] lay in the range of 40 to 400 nM.

In data set [1], `CNC(=O)C(=O)CC[C@H](NC(=O)c1ccc(Cl)s1)C(=O)Nc1cccn(CC(=O)NC2C3CC4CC(C3)CC2C4)c1=O` (stereo partly drawn) [II-24, (S)-2-(5-chlorothiophene-2-carboxamido)-N1-(1-(2-(2-adamantylamino)-2-oxoethyl)-2-oxo-1,2-dihydropyridin-3-yl)-N6-methyl-5-oxohexanediamide] registered a Papp of 1 to 10 ×10⁻⁶ cm/s. Moreover, the pH-dependent lipophilicity (logD) in data set [2] fell in the range of 1 to 3. In addition, the half-maximal inhibitory concentration (IC50) in data set [3] is 40 to 400 nM.

Compound `CNC(=O)C(=O)CC[C@H](NC(=O)c1oc(Br)cc1C)C(=O)Nc1cccn(CC(=O)NC2C3CC4CC(C3)CC2C4)c1=O` (stereo partly drawn) [II-25, (S)-2-(5-bromo-3-methylfuran-2-carboxamido)-N1-(1-(2-(2-adamantylamino)-2-oxoethyl)-2-oxo-1,2-dihydropyridin-3-yl)-N6-methyl-5-oxohexanediamide] showed an apparent permeability coefficient (Papp) in data set [1] of 1 to 10 ×10⁻⁶ cm/s. Also, in data set [2], the logD was 1 to 3. In addition, the IC50 in data set [3] was in the range of 40 to 400 nM.
